Test results published in US20250143290A1, “AGROCHEMICAL COMPOSITION COMPRISING AT LEAST ONE AGROCHEMICAL ACTIVE COMPONENT AND A SOLVENT” (MINAGRO SRL, priority 2022, published 2025).

Columns and labels:
[1] = Hansen and Hildebrand solubility parameters
From the text: The Hansen solubility parameters are used for predicting if one material will dissolve in another and form a (homogeneous) solution.
Furthermore, solvents with similar Hansen solubility parameters will have similar solubility characteristics, including which agrochemical active components will and which agrochemical active components will not dissolve in the solvents.

[2] = physchem; conditions: for solubility: organic solvent or mixture, thermodynamic from solid
From the text: Said saturated solutions were subsequently analyzed by HPLC to determine the agrochemical active component concentration. The samples were centrifuged and filtered twice through 1.6 and 0.45 μm filters to remove any extraneous material prior to analysis.
For each combination of agrochemical active component, a calibration curve was established to plot the instrumental response, e.g., the analytical signal, changes with the concentration of the agrochemical active component.

[3] = system: microorganisms of the inoculum
Protocol: The test duration is 28 days. The vessels contained 250 ml of the inoculated buffered mineral salt medium and the test material (test substance or reference substance) as the sole carbon source. To each test series blanks (without test material) were set up to run in parallel. Incubation was conducted at 22±1° C. in diffuse light and agitation by magnetic stirrers. All analyses were conducted at least in duplicate. Oxygen consumption was continuously measured with a respirometer. The amount of oxygen taken up by the microorganisms during biodegradation (biological oxygen demand; BOD) is compared with the chemical oxygen demand (COD) of the test substance. The percent biodegradation of the test substance is calculated from the BOD in relation to the COD or alternative of the theoretical oxygen demand (ThOD) of the test substance. The test material (92 mg/L) was distributed in a thin layer on an inert carrier (glass fiber filter) and added directly to the aqueous medium.

[4] = system: Lactuca sativa; assay: Phytotoxicity study on lettuce; assay type: in vivo; conditions: lettuce Lucrecia RZ sprayed until saturation at 1%, 2%, 5% and 10%; 5 and 10 days after spraying
Protocol: The aim of this experiment is to determine if these solvents can cause phytotoxicity on lettuce at different concentrations. Lettuce of the Lucrecia RZ variety was sown in potting soil and transplanted into 3L pots. For each of the solvents, four concentrations were tested: 1%, 2%, 5% and 10%. A control (water) was also performed. […] Fifteen replicates per treatment were conducted. A monitoring of the appearance of potential spots due to phytotoxicity is carried out 5 days and 10 days after spraying.

| SMILES | Hansen Solubility Parameters δd [1] | Hansen Solubility Parameters δn [1] | Hansen Solubility Parameters δp [1] | Hildebrand δ [1] | also measured |
| --- | --- | --- | --- | --- | --- |
| O=C1CCCCC1 [Cyclohexanone] | 17.8 J/mL | 5.1 J/mL | 6.3 J/mL | 19.56 J/mL | – |
| CCOC(C)=O [Ethyl Acetate] | 15.8 J/mL | 7.2 J/mL | 5.3 J/mL | 18.15 J/mL | – |
| Nc1c(Cl)c(F)nc(OCC(=O)O)c1Cl [Fluroxypyr] | – | – | – | – | Solubility in saturation [2]: 546.25 mg/mL; solubility ([2]; Solubility in saturation): 537 mg/mL |
| CC1=CC(=O)CC(C)(C)C1 [Isophorone] | 16.6 J/mL | 7.4 J/mL | 8.2 J/mL | 19.94 J/mL | – |
| CC1(C)CCC(Cc2ccc(Cl)cc2)C1(O)Cn1cncn1 (stereo not shown) [Metconazole] | – | – | – | – | solubility ([2]; Solubility in saturation): 210 mg/mL |
| COC(=O)Nc1cccc(OC(=O)Nc2cccc(C)c2)c1 [Phenmidipham] | – | – | – | – | Solubility in saturation ([2]; in n-butyl THF, saturated solution MT 181, HPLC, pure active ingredient): 35.66 mg/mL; Solubility in saturation ([2]; in t-butyl THF, saturated solution MT 181, HPLC, pure active ingredient): 37.11 mg/mL |
| OC(Cc1ccccc1Cl)(Cn1nc[nH]c1=S)C1(Cl)CC1 (stereo not shown) [Prothioconazole] | – | – | – | – | solubility [2]: 341 mg/mL |
| CC(COc1ccc(Oc2ccccc2)cc1)Oc1ccccn1 (stereo not shown) [Pyriproxyfen] | – | – | – | – | solubility ([2]; Solubility in saturation): 631 mg/mL |
| OCC1CCCO1 (stereo not shown) [THFA TetraHydroFurfurylAlcohol, TetraHydroFurfurylAlcohol] | 17.8 J/mL | 10.2 J/mL | 8.2 J/mL | 22.09 J/mL | – |
| CC(C)(C)C(O)(CCc1ccc(Cl)cc1)Cn1cncn1 (stereo not shown) [Tebuconazole] | – | – | – | – | solubility ([2]; Solubility in saturation): 181 mg/mL; solubility ([2]; t-butyl THF, Solubility in saturation, in t-butyl THF, saturated solution MT 181, HPLC, pure active ingredient): 188 mg/mL |
| CCCCOCC1CCCO1 (stereo not shown) [n-butyl THF, 2-(butoxymetyl)tetrahydrofuraan] | 16.47 J/mL | 5.96 J/mL | 4.74 J/mL | 18.15 J/mL | inhibition of the microorganisms of the inoculum [3]: non-inhibitory; phytotoxicity on salads (spots) [4]: absence of phytotoxicity |
| CCCCOC(C)=O [n-butyl acetate] | 15.8 J/mL | 6.3 J/mL | 3.7 J/mL | 17.41 J/mL | – |
| Cc1ccc(C)cc1 [p-Xylène] | 17.6 J/mL | 3.1 J/mL | 1 J/mL | 17.90 J/mL | – |
| CC(C)(C)OCC1CCCO1 (stereo not shown) [t-butyl THF, 2-(tert-Butoxymethyl)tetrahydrofuran] | – | – | – | – | phytotoxicity on salads (spots) [4]: absence of phytotoxicity |
